Assay results: patent US20090081154A1, “Attractant composition for yellowjackets” (priority 2006, published 2009)
Where “and” joins values, the source holds several entries; their conditions need not be identical. Identical values can stand only once.

How the values were obtained:
yellowjackets [1] = assay: Second field trap experiment, LHS upper patio, 4 sets of three treatments; format: in vivo, Vespula pensylvanica; conditions: 7/21-8/10/05, twenty days, LHS UP, 4 traps per treatment (one octyl butyrate trap lost)
Excerpt: A second experiment was set up at the Lawrence Hall of Science upper patio, placing 4 sets of the three treatments randomly around the patio, a total of 12 traps. One trap containing octyl butyrate was lost and not counted.

yellowjackets [2] = assay: Field trap test octyl butyrate vs. OB + 1% trans-2-hexenol, Strawberry Baseball Diamonds; format: in vivo, Vespula pensylvanica; conditions: 8 ml attractant, 27 days; for # of YJ (single trap): per trap, t-2-H 1% by weight
Experimental: In another experiment conducted at the Strawberry Baseball Diamonds, octyl butyrate was compared to octyl butyrate+t-2-hexenol, where the trans-2-hexenol was present in 1% concentration by weight. […] For each treatment, 8 ml of attractant was used. The traps were collected and counted after 27 days. The total number of yellowjackets caught in the three traps with octyl butyrate alone is 113. A total of 170 yellowjackets were caught in the three traps baited with octyl butyrate +t-2-hexenol.

yellowjackets [3] = assay: Three ester trap trials taken together (totals and conclusions); format: in vivo, Vespula pensylvanica; conditions: for relative attractiveness of the esters, in words: heptyl butyrate, octyl butyrate and their combination compared; for Total numbers of yellowjackets caught for all trials: sum of Tables 1-3
Experimental: Several experiments were performed to determine the relative attractiveness of heptyl butyrate, octyl butyrate and a 1:1 mixture of the two esters. In an initial experiment, one trap each containing octyl butyrate, heptyl butyrate, or a 1:1 mixture of the two esters, was placed around the perimeter of the north lawn of the Lawrence Hall of Science, University of California, Berkeley. After approximately 1 month, the yellowjackets in each trap were collected and counted. […] The results are shown below in Table 1: A second experiment was set up at the Lawrence Hall of Science upper patio, placing 4 sets of the three treatments randomly around the patio, a total of 12 traps. One trap containing octyl butyrate was lost and not counted. After twenty days, the total numbers of yellowjackets caught for each of the treatments is shown in table 2 below: A third trial was performed in the same location using a total of 12 traps. There were 4 repetitions of each treatment presented. The total number of yellowjackets caught per each treatment is shown in table 3: Total numbers of yellowjackets caught for all trials are given below: The trial from Jul. 21-Aug. 10, 2005 cannot be assumed to be an anomaly.

yellowjackets [4] = assay: Field trap test octyl butyrate vs. OB + 1% MSA + 1% t-2-H, LHS North Lawn; format: in vivo, Vespula pensylvanica; conditions: three traps per treatment, 8 ml attractant, 1% each MSA and t-2-H; listed as OB
Experimental: In a separate experiment, a mixture of octyl butyrate and the two kairomones methyl salicylate (MSA) and trans-2-hexenol (t-2-H), where the two kairomones were each present in 1% by weight quantities, was tested against octyl butyrate alone. Three repetitions of each treatment were tested in yellowjacket traps placed around the Lawrence Hall of Science North Lawn on Jul. 21, 2005. Each lure contained 8 ml of attractant. The traps were collected and the yellowjackets removed and counted on Aug. 11, 2005. […] A total of 40 yellowjackets were caught using the combination OB+MSA+t-2-H, whereas only 31 yellowjackets were caught in traps baited with OB alone.

yellowjackets [5] = assay: Field trap test octyl butyrate vs. OB + 1% methyl salicylate, LHS Back Plaza; format: in vivo, Vespula pensylvanica; conditions: 1% MSA
Experimental: In one experiment, octyl butyrate (OB) was compared with OB containing 1% methyl salicylate (MSA). Six traps were placed at the Lawrence Hall of Science Back Plaza on Jul. 21, 2005. Three of the traps were baited with octyl butyrate alone. The other three were baited with the mixture of 1% methyl salicylate in octyl butyrate. Each of the traps contained 8ml of attractant dispensed on a cotton pad, which was placed inside the trap. The traps were collected on Sep. 8, 2005, and the yellowjackets counted.

Vespula pensylvanica = assay: Initial field trap experiment: octyl butyrate, heptyl butyrate or 1:1 mixture, LHS north lawn; format: in vivo; conditions: one trap per composition, 6/15-7/21 (approximately 1 month), LHS NL
Experimental: Several experiments were performed to determine the relative attractiveness of heptyl butyrate, octyl butyrate and a 1:1 mixture of the two esters. In an initial experiment, one trap each containing octyl butyrate, heptyl butyrate, or a 1:1 mixture of the two esters, was placed around the perimeter of the north lawn of the Lawrence Hall of Science, University of California, Berkeley. After approximately 1 month, the yellowjackets in each trap were collected and counted. […]

yellowjackets [6] = assay: Third field trap trial, LHS upper patio, 12 traps; format: in vivo, Vespula pensylvanica; conditions: 8/11-9/7/05, LHS UP; for total YJ: 4 repetitions of each treatment
Experimental: A third trial was performed in the same location using a total of 12 traps. There were 4 repetitions of each treatment presented.

| SMILES | Total # YJ (yellowjackets [1]) | # of YJ (single trap) (yellowjackets [2]; listed as OB) | # of YJ (single trap) (yellowjackets [2]; listed as Octyl (OB)) | Total YJ per Treatment (yellowjackets [2]; three traps per treatment, t-2-H 1%) | relative attractiveness of the esters, in words (yellowjackets [3]) | Total numbers of yellowjackets caught for all trials (yellowjackets [3]) | Totals (YJ per treatment) (yellowjackets [4]) | # of YJ (single trap) (yellowjackets [5]; per trap, 8 ml attractant on cotton pad, LHS Back Plaza, collected Sep. 8, 2005) | Totals (YJ per treatment) (yellowjackets [5]; three traps per treatment, 8 ml attractant) | # YJ caught (Vespula pensylvanica) | Avg catch per trap (yellowjackets [6]) | total YJ (yellowjackets [6]) |
| --- | --- | --- | --- | --- | --- | --- | --- | --- | --- | --- | --- | --- |
| CCCCCCCCOC(=O)CCC [octyl butyrate] | 145 | 38 and 41 | 34 | 113 | inferior attractant to heptyl butyrate | 315 | 31 and 30 | 0 | no yellowjackets were caught | 36 | 45 | 134 |
| CCCCCCCOC(=O)CCC [heptyl butyrate] | 235 | – | – | – | more effective in luring and capturing yellowjackets than octyl butyrate | 625 | – | – | – | 148 | 61 | 242 |
